According to US12636322B2, “Bacterial strain with high cellulolytic activity” (INSTITUT NATIONAL SUPERIEUR DES SCIENCES AGRONOMIQUES DE …, priority 2021, dated 2026):

tested on: F. succinogenes HC4; assay: Phenotypic tests for antibiotic resistance; assay type: cell-based, Fibrobacter succinogenes; settings: liquid filter paper semi-synthetic medium, anaerobic, 48 hours at 38° C.
Protocol: Eight antibiotics were tested according to EFSA recommendations for Gram-negative bacteria (31). Before being added to the filter paper semi-synthetic medium, the antibiotics were sterilized by filtration (0.22 μm filters). 24-hours cultures of strain HC4 were inoculated into media containing each antibiotic. A positive control without antibiotics was inoculated from the same culture of strain HC4 and two cultures were prepared for each condition. After 48 hours of incubation at 38° C., the observation of filter paper degradation allowed estimating the bacterial growth. In case of no degradation, a sample of liquid was taken and frozen at −20° C. for further determination of succinate production.

| Compound | Concentrations to inhibit growth |
| --- | --- |
| Gentamicin | 128 mg/L |
| [H]/N=C(/N)N[C@H]1[C@H](O)[C@@H](O)[C@H](O[C@@H]2O[C@@H](C)[C@](O)(C=O)[C@H]2O[C@@H]2O[C@@H](CO)[C@H](O)[C@@H](O)[C@@H]2NC)[C@@H](N/C(N)=N\[H])[C@@H]1O [Streptomycin] | 2048 mg/L |
| CN(C)[C@@H]1C(=O)C(C(N)=O)=C(O)[C@@]2(O)C(=O)C3=C(O)c4c(O)cccc4[C@@](C)(O)[C@H]3C[C@@H]12 [Tetracyclin] | 1 mg/L |
| CC1(C)S[C@@H]2[C@H](NC(=O)[C@H](N)c3ccccc3)C(=O)N2[C@H]1C(=O)O [Ampicillin] | 32 mg/L |
| C[C@@H]1O[C@@H]1P(=O)(O)O [Fosfomycin] | 512 mg/L |
| NC[C@H]1O[C@H](O[C@H]2[C@H](O)[C@@H](O[C@H]3O[C@H](CO)[C@@H](O)[C@H](N)[C@H]3O)[C@H](N)C[C@@H]2N)[C@H](O)[C@@H](O)[C@@H]1O [Kanamycin] | 8000 mg/L |
| Colistin | 64 mg/L |
